What was measured:
Assay type in all cases: cell-based
NIH3T3 cells [1] = assay: Destabilization mutant screening of human CA2 linked to GFP, ligand response by FACS (Valdecoxib, Celecoxib, Acetazolamide)
Description: To identify destabilizing mutations of human CA2 that are stabilized upon ligand binding to CA2, two rounds of mutant screening were performed, using a lentivirus CA2 mutant library provided by Genscript (China). These methods were used to generate a library of mutant polypeptides using mutagenesis primers and error prone PCR. Lentiviral vectors expressing the template, wild-type human CA2 operably linked to GFP(OT-001986) was also provided by Genscript along with the CA2 mutant library. The library was packaged into lentivirus, transduced into NIH3T3 cells at a multiplicity of infection (MOI) of approximately 0.3 and select stable cell pools were derived by selecting with selection marker puromycin.
To identify cell pools containing destabilizing mutants of CA2 that are stabilizing when CA2 is bound to its corresponding ligand, cells were sorted using FACS. In the initial round, the bottom 15% of population that was GFP negative in the absence of ligand was selected. Cells were expanded and then treated with 10 μM Celecoxib for 24 hours and harvested for cell sorting. The top 11% GFP positive cells which were also responsive to ligand treatment compared to untreated were collected. Celecoxib was removed from the cultures and replaced with DMSO. […] Genomic DNA was isolated and amplified CA2 mutants were reintroduced to the lentiviral vectors where CA2 was operably linked to GFP. The constructs were transduced into NIH3T3 cells with lentivirus vectors for each clone. The cells were treated with 10 μM Valdecoxib or 10 μM Celecoxib for 24 hours and analyzed by FACS. […] In Table 25, the Construct ID (OT-XXXXXX) refers to the construct which includes the referenced CA2 mutant and the Library ID (LibCXXXXXX) refers to the CA2 mutant itself.
The response of NIH3T3 cells to varying doses of Valdecoxib or Celecoxib for 24 hours was measured and analyzed by FACS.
Clones treated with different ligands were compared to examine the behavior of each mutant with the ligands.

NIH3T3 cells [2] = assay: Immunoblotting of cell lysates for GFP after ligand treatment; details: 24 hours
Description: The protein expression in the presence of ligand was measured by immunoblotting the cell lysates for GFP.
The protein expression in the presence of ligand was measured by immunoblotting cell lysates for GFP.

NIH3T3 cells [3] = assay: Destabilization mutant screening of human CA2 linked to GFP, ligand response by FACS (Valdecoxib, Celecoxib, Acetazolamide); remark: listed apart in the source
[4] = NIH3T3, Celecoxib 0 μM, 24 hours
[5] = NIH3T3, Celecoxib 0.03 μM, 24 hours
[6] = NIH3T3, Celecoxib 0.1 μM, 24 hours
[7] = NIH3T3, Celecoxib 0.3 μM, 24 hours
[8] = NIH3T3, Celecoxib 1 μM, 24 hours
[9] = NIH3T3, Celecoxib 3 μM, 24 hours
[10] = NIH3T3, Celecoxib 10 μM, 24 hours
[11] = NIH3T3, Celecoxib 30 μM, 24 hours
[12] = NIH3T3, Valdecoxib 0 μM, 24 hours
[13] = NIH3T3, Valdecoxib 0.03 μM, 24 hours
[14] = NIH3T3, Valdecoxib 0.1 μM, 24 hours
[15] = NIH3T3, Valdecoxib 0.3 μM, 24 hours
[16] = NIH3T3, Valdecoxib 1 μM, 24 hours
[17] = NIH3T3, Valdecoxib 3 μM, 24 hours
[18] = NIH3T3, Valdecoxib 10 μM, 24 hours
[19] = NIH3T3, Valdecoxib 30 μM, 24 hours

Which results are given for “CA2 (aa 2-260 of WT, L156H, S172C, F178Y, E186D) [LibC000193]”?
Median PE (NIH3T3 cells [1]; NIH3T3, 10 μM Celecoxib): 7428; SR (stabilization ratio) (NIH3T3 cells [1]; NIH3T3, 10 μM Celecoxib vs DMSO): 10.71; Median PE (NIH3T3 cells [1]; NIH3T3, 10 μM Valdecoxib): 6445; SR (stabilization ratio) (NIH3T3 cells [1]; NIH3T3, 10 μM Valdecoxib vs DMSO): 9.3; Median FITC / Median PE (NIH3T3 cells [1]; NIH3T3, Acetazolamide 0.03 μM, 24 hours): 854; Fold change (NIH3T3 cells [1]; NIH3T3, Acetazolamide 0.1 μM vs DMSO): 2.92; Median FITC / Median PE (NIH3T3 cells [1]; NIH3T3, Acetazolamide 0.1 μM, 24 hours): 1628; Fold change (NIH3T3 cells [1]; NIH3T3, Acetazolamide 0.3 μM vs DMSO): 6.59; Median FITC / Median PE (NIH3T3 cells [1]; NIH3T3, Acetazolamide 0.3 μM, 24 hours): 3669; Fold change (NIH3T3 cells [1]; NIH3T3, Acetazolamide 1 μM vs DMSO): 13.34; Median FITC / Median PE (NIH3T3 cells [1]; NIH3T3, Acetazolamide 1 μM, 24 hours): 7445; Fold change (NIH3T3 cells [1]; NIH3T3, Acetazolamide 3 μM vs DMSO): 18.31; Median FITC / Median PE (NIH3T3 cells [1]; NIH3T3, Acetazolamide 3 μM, 24 hours): 10200; MFI, comparative analysis (NIH3T3 cells [1]; NIH3T3, Acetazolamide 10 μM): 11900; Fold change (NIH3T3 cells [1]; NIH3T3, Acetazolamide 10 μM vs DMSO): 21.36; Median FITC / Median PE (NIH3T3 cells [1]; NIH3T3, Acetazolamide 10 μM, 24 hours): 11900; MFI, comparative analysis (NIH3T3 cells [1]; NIH3T3, Acetazolamide 30 μM): 12900; Fold change (NIH3T3 cells [1]; NIH3T3, Acetazolamide 30 μM vs DMSO): 23.16; Median FITC / Median PE (NIH3T3 cells [1]; NIH3T3, Acetazolamide 30 μM, 24 hours): 12900; Med (median fluorescence intensity) (NIH3T3 cells [1]; [4]): 826; SR (stabilization ratio) (NIH3T3 cells [1]; [4]): 1; Med (median fluorescence intensity) (NIH3T3 cells [1]; [5]): 935; SR (stabilization ratio) (NIH3T3 cells [1]; [5]): 1.13; Med (median fluorescence intensity) (NIH3T3 cells [1]; [6]): 1005; SR (stabilization ratio) (NIH3T3 cells [1]; [6]): 1.22; Med (median fluorescence intensity) (NIH3T3 cells [1]; [7]): 1211; SR (stabilization ratio) (NIH3T3 cells [1]; [7]): 1.47; Med (median fluorescence intensity) (NIH3T3 cells [1]; [8]): 2058; SR (stabilization ratio) (NIH3T3 cells [1]; [8]): 2.49; Med (median fluorescence intensity) (NIH3T3 cells [1]; [9]): 4283; SR (stabilization ratio) (NIH3T3 cells [1]; [9]): 5.19; Med (median fluorescence intensity) (NIH3T3 cells [1]; [10]): 7751; SR (stabilization ratio) (NIH3T3 cells [1]; [10]): 9.38; Med (median fluorescence intensity) (NIH3T3 cells [1]; [11]): 11100; SR (stabilization ratio) (NIH3T3 cells [1]; [11]): 13.44; MFI, comparative analysis, normalized to parental day 1 (NIH3T3 cells [1]; NIH3T3, Celecoxib μM (concentration not given)): 6910.53; MFI, comparative analysis (NIH3T3 cells [1]; NIH3T3, DMSO): 557; Median PE (NIH3T3 cells [1]; NIH3T3, DMSO): 693; SR (stabilization ratio) (NIH3T3 cells [1]; NIH3T3, DMSO (reference)): 1; Median FITC / Median PE (NIH3T3 cells [1]; NIH3T3, DMSO, 24 hours (Acetazolamide experiment)): 557; Med (median fluorescence intensity) (NIH3T3 cells [1]; [12]): 826; SR (stabilization ratio) (NIH3T3 cells [1]; [12]): 1; Med (median fluorescence intensity) (NIH3T3 cells [1]; [13]): 932; SR (stabilization ratio) (NIH3T3 cells [1]; [13]): 1.13; Med (median fluorescence intensity) (NIH3T3 cells [1]; [14]): 1013; SR (stabilization ratio) (NIH3T3 cells [1]; [14]): 1.23; Med (median fluorescence intensity) (NIH3T3 cells [1]; [15]): 1064; SR (stabilization ratio) (NIH3T3 cells [1]; [15]): 1.29; Med (median fluorescence intensity) (NIH3T3 cells [1]; [16]): 1583; SR (stabilization ratio) (NIH3T3 cells [1]; [16]): 1.92; Med (median fluorescence intensity) (NIH3T3 cells [1]; [17]): 3667; SR (stabilization ratio) (NIH3T3 cells [1]; [17]): 4.44; Med (median fluorescence intensity) (NIH3T3 cells [1]; [18]): 7449; SR (stabilization ratio) (NIH3T3 cells [1]; [18]): 9.02; Med (median fluorescence intensity) (NIH3T3 cells [1]; [19]): 9460; SR (stabilization ratio) (NIH3T3 cells [1]; [19]): 11.45; MFI, comparative analysis, normalized to parental day 1 (NIH3T3 cells [1]; NIH3T3, Valdecoxib μM (concentration not given)): 6641.277; stabilization with varying doses of Valdecoxib or Celecoxib (NIH3T3 cells [1]; NIH3T3 cells, 24 hours, FACS): dose dependent stabilization; GFP protein expression by immunoblot, Acetazolamide (NIH3T3 cells [2]; NIH3T3 cells, 0.3, 1, 3, 10 or 30 μM Acetazolamide): stabilization of GFP with increasing ligand doses; GFP protein expression by immunoblot, Celecoxib or Valdecoxib (NIH3T3 cells [2]; NIH3T3 cells, 1, 3, 10 or 30 μM Celecoxib or Valdecoxib): stabilization of GFP with increasing ligand doses; Fold change (NIH3T3 cells [3]; NIH3T3, Acetazolamide 0.03 μM vs DMSO): 1.53; Fold change (NIH3T3 cells [3]; NIH3T3, DMSO (reference), Acetazolamide experiment): 1

— patent publication US20230026259A1, “CA2 COMPOSITIONS AND METHODS FOR TUNABLE REGULATION” (Obsidian Therapeutics, Inc., priority 2019, published 2023)
